From ChEMBL document CHEMBL4390705, “A new lateral root growth inhibitor from the sponge-derived fungus Aspergillus sp. LS45” (Bioorg Med Chem Lett, 2019)
Activity calls are given as the source filed them. The rule behind the calls is not given here.

Columns and labels:
AGS = assay: Cytotoxicity against human AGS cells by MTT assay; format: functional, cell-based
MDA-MB-231 = assay: Cytotoxicity against human MDA-MB-231 cells by MTT assay; format: functional, cell-based
CCRF-CEM = assay: Cytotoxicity against human CCRF-CEM cells by MTT assay; format: functional, cell-based
HCT-116 = assay: Cytotoxicity against human HCT116 cells by MTT assay; format: functional, cell-based
Arabidopsis thaliana [1] = assay: Inhibition of seed germination in Arabidopsis thaliana Columbia-0 assessed as reduction in primary root growth up to 100 uM incubated for 10 days under 16 hrs-light/8 hrs-dark condition by microscopic analysis; format: functional, organism-based
BGC-823 = assay: Cytotoxicity against human BGC823 cells by MTT assay; format: functional, cell-based
K562 = assay: Cytotoxicity against human K562 cells by MTT assay; format: functional, cell-based
Arabidopsis thaliana [2] = assay: Inhibition of seed germination in Arabidopsis thaliana Columbia-0 assessed as reduction in lateral root growth up to 100 uM incubated for 10 days under 16 hrs-light/8 hrs-dark condition by microscopic analysis; format: functional, organism-based
Acetylcholinesterase = biological target: T1, Acetylcholinesterase (Mus musculus, UniProt P21836); assay: Inhibition of mouse brain homogenate AChE using acetylthiocholine iodide as substrate measured after 15 mins in presence of BChE inhibitor methopropazine hydrochloride by DTNB reagent based colorimetric method; format: tissue-based
T1 sequence (P21836 whole entry): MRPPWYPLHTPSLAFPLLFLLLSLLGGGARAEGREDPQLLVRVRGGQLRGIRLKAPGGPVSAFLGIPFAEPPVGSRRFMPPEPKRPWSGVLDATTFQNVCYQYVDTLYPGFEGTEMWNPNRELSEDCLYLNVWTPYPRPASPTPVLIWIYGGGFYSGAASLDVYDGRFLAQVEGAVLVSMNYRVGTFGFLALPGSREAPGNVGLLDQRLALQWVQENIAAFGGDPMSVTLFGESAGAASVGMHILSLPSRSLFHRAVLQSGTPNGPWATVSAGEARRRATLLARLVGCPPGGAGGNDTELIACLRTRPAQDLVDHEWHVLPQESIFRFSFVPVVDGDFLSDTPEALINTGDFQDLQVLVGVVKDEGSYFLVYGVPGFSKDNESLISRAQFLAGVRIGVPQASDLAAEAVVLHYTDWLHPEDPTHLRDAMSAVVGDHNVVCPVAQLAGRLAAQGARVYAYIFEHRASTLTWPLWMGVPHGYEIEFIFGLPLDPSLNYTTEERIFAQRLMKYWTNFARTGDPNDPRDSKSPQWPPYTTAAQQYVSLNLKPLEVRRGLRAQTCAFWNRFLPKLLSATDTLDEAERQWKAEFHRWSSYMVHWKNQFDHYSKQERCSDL

Arabidopsis thaliana [3] = assay: Inhibition of seed germination in Arabidopsis thaliana Columbia-0 assessed as reduction in lateral root growth at 50 to 100 uM incubated for 10 days under 16 hrs-light/8 hrs-dark condition by microscopic analysis; format: functional, organism-based
Arabidopsis thaliana [4] = assay: Inhibition of seed germination in Arabidopsis thaliana Columbia-0 assessed as reduction in primary root growth at 50 uM incubated for 10 days under 16 hrs-light/8 hrs-dark condition by microscopic analysis; format: functional, organism-based
Arabidopsis thaliana [5] = assay: Inhibition of seed germination in Arabidopsis thaliana Columbia-0 assessed as reduction in primary root growth at 100 uM incubated for 10 days under 16 hrs-light/8 hrs-dark condition by microscopic analysis; format: functional, organism-based

Row | Compound | IC50 (AGS) [µM] | IC50 (MDA-MB-231) [µM] | IC50 (CCRF-CEM) [µM] | IC50 (HCT-116) [µM] | inhibition (Arabidopsis thaliana [1]) | IC50 (BGC-823) [µM] | IC50 (K562) [µM] | inhibition (Arabidopsis thaliana [2]) | IC50 (Acetylcholinesterase) [µM] | inhibition (Arabidopsis thaliana [3]) | inhibition (Arabidopsis thaliana [4]) | inhibition (Arabidopsis thaliana [5])
1 | CC[C@H](O)c1oc(=O)cc(OC)c1C | > 50 | > 50 | > 50 | > 50 | inactive | > 50 | > 50 | inactive | > 200 | – | – | –
2 | CCCC1=C/C(=C/[C@H](O)[C@@H](C)O)OC1=O | > 50 | > 50 | > 50 | > 50 | – | > 50 | > 50 | – | > 200 | Active | Active | inactive
3 | CC(C)c1ccc(CO)c2ccc(C(=O)O)cc12 | – | – | 13.8 | – | – | – | 12.9 | – | > 200 | Active | Active | inactive
4 | Nc1cc(F)ccc1NC(=O)c1ccc(CNC(=O)/C=C/c2cccnc2)cc1 [TUCIDINOSTAT] | – | – | 0.63 | – | – | – | 1.34 | – | – | – | – | –
5 | CCCC1=C/C(=C\[C@H](O)[C@@H](C)O)OC1=O | > 50 | > 50 | > 50 | > 50 | inactive | > 50 | > 50 | inactive | > 200 | – | – | –
